{"source": "paper PMC6720883", "about": "“In Vitro Inhibitory Effects of APINACA on Human Major Cytochrome P450, UDP-Glucuronosyltransferase Enzymes, and Drug Transporters” (Molecules, 2019)", "key": {"UGT2B7": {"target": "UGT2B7 (Homo sapiens, UniProt P16662)", "sequence (P16662 24-529)": "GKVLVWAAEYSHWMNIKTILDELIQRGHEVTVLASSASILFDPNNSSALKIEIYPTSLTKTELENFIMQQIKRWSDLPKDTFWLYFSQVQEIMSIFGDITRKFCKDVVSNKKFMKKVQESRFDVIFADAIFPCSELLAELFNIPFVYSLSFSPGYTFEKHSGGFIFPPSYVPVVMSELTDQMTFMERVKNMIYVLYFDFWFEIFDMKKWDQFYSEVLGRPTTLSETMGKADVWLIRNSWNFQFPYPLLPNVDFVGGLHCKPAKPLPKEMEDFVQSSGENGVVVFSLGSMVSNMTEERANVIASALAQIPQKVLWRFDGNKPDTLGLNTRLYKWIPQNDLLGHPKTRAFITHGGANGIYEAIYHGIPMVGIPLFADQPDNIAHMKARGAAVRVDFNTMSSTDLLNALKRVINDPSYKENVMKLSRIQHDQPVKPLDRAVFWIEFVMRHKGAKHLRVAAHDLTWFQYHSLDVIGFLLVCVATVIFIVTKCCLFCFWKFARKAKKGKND", "assay": "Inhibition of UGT2B7-catalyzed naloxone 3-β-D-glucuronidation in human liver microsomes", "type": "in vitro ADME", "quoted_text": "The inhibitory effect of APINACA and typical UGT inhibitors on UGT1A1, UGT1A3, UGT1A4, UGT1A6, UGT1A9, and UGT2B7 were evaluated following our previous method by LC–MS/MS after incubation of ultrapooled human liver microsomes with a cocktail of UGT substrates [44]. […] The reactions were initiated by adding UDPGA, and the incubation continued for 60 min at 37 °C in a shaking water bath. The reactions were terminated by adding 50 μL of ice-cold acetonitrile containing internal standards (propofol glucuronide for chenodeoxycholic acid 24-acyl-β-glucuronide and mycophenolic acid glucuronide; and meloxicam for SN-38 glucuronide, trifluoperazine glucuronide, N-acetylserotonin β-D-glucuronide, and naloxone 3-β-D-glucuronide). The incubation mixtures were centrifuged at 13,000× g for 8 min at 4 °C. Next, 50 μL of each supernatant of A and B set was mixed, and aliquots (5 μL) were analyzed by LC–MS/MS. All assays were performed in triplicate, and the average values were used in calculations.\nTo measure the time-dependent inhibition, human liver microsomes were preincubated with the various concentrations of APINACA (final concentrations of 0.1–100 μM) and UDPGA for 30 min at 37 °C. Next, the reaction mixtures were incubated with UGT probe substrate cocktail sets for 60 min at 37 °C. The control reaction was performed by adding methanol instead of the test compounds."}, "UGT1A1": {"target": "T1, UGT1A1 (Homo sapiens, UniProt P22309)", "T1 construct": "[…]; tissue Corning Life Sciences", "T1 sequence (P22309 26-533)": "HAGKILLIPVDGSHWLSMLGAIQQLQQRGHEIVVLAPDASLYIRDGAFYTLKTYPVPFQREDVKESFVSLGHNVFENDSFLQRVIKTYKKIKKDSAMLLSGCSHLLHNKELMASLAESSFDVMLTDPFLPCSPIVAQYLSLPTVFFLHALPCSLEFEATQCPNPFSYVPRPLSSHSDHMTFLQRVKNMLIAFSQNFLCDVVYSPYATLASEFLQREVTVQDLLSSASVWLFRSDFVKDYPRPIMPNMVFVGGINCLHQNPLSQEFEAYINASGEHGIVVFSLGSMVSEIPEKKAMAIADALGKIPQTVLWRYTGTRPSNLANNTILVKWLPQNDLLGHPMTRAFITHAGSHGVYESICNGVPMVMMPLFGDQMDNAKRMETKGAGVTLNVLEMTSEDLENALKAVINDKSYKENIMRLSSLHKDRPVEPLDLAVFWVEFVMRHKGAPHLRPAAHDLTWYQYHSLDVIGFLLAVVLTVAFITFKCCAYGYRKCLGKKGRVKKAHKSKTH", "assay": "biochemical", "type": "in vitro ADME", "text": "(§1) 12.5 (Systat Software, Inc.; San Jose, CA, USA). […] 1.1 (Systat Software, Inc.)."}, "CYP2C19": {"target": "CYP2C19 (Homo sapiens, UniProt P33261)", "sequence (P33261 whole entry)": "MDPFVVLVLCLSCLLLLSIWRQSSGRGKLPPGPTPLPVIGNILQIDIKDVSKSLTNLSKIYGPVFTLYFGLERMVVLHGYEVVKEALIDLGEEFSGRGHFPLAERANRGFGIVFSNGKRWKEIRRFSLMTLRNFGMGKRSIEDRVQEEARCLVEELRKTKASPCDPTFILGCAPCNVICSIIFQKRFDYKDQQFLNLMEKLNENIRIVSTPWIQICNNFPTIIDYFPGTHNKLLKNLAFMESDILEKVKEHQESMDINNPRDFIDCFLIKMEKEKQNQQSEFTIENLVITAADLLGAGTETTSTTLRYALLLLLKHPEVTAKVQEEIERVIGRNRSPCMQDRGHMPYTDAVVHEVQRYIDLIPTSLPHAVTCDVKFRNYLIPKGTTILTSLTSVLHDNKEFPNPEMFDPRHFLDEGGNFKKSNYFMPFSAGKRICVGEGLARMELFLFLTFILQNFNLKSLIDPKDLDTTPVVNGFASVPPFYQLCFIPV", "assay": "Inhibition of CYP2C19-mediated [S]-mephenytoin 4′-hydroxylase in ultrapooled human liver microsomes", "type": "in vitro ADME", "description": "(§2) The inhibitory potentials (IC50 values) of APINACA and typical CYP inhibitors on CYP 1A2, 2A6, 2C8, 2C9, 2C19, 2D6, and 3A4 activities in pooled human liver microsomes were evaluated following our previous method using a cocktail of CYP substrates, followed by LC–MS/MS [43]. […] After 3 min of preincubation at 37 °C, the reaction mixtures were incubated for 15 min at 37 °C with the addition of NADPH in a shaking water bath. The reaction was stopped by adding 100 μL of ice cold methanol containing internal standards (d9-1′-hydroxybufuralol for 1′-hydroxybufuralol, 4′-hydroxydiclofenac, 7-hydroxycoumarin, 1′-hydroxymidazolam, and 4′-hydroxymephenytoin; ^13C2, ^15N-acetaminophen for acetaminophen and N-desethylamodiaquine). The incubation mixtures were centrifuged at 13,000× g for 8 min at 4 °C, and 50 μL of each supernatant was diluted with 50 μL of water. Aliquots (5 μL) of the diluted supernatants were analyzed by LC–MS/MS. All assays were performed in triplicate, and the average values were used for subsequent calculations.\n(§3) To measure the time-dependent inhibition, human liver microsomes were preincubated with the various concentrations of APINACA (final concentrations of 0.1−100 μM) and NADPH for 30 min at 37 °C. Next, the reaction mixtures were incubated with a seven-CYP probe substrate cocktail or bupropion for 15 min at 37 °C. […]"}, "OAT1": {"target": "OAT1 (Homo sapiens, UniProt Q4U2R8)", "sequence (Q4U2R8 whole entry)": "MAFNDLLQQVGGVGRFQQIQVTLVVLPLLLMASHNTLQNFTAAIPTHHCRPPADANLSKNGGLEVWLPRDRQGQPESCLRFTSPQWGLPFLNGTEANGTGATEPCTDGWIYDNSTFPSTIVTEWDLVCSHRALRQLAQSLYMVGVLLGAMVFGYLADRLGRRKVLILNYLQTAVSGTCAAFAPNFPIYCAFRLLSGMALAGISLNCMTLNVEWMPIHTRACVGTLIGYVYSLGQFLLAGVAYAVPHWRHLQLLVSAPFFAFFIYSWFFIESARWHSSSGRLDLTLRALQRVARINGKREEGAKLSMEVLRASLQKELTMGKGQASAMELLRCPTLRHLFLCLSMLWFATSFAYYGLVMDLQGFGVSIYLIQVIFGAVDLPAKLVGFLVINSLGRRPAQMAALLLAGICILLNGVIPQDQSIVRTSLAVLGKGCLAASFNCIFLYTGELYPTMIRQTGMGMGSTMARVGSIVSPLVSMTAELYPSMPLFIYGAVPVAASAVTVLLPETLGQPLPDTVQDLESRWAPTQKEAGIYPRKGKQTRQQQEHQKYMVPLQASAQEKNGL", "assay": "Uptake of [3-H]para-aminohippuric acid in HEK293-OAT1 cells"}, "[1]": {"target": "human dopamine transporter", "parameters": "method as in PMID 28824464", "conditions": "human dopamine transporter overexpressed system; read-out: Ki for inhibition of dopamine uptake; cited from earlier work"}, "CYP2C8": {"target": "CYP2C8 (Homo sapiens, UniProt P10632)", "sequence (P10632 whole entry)": "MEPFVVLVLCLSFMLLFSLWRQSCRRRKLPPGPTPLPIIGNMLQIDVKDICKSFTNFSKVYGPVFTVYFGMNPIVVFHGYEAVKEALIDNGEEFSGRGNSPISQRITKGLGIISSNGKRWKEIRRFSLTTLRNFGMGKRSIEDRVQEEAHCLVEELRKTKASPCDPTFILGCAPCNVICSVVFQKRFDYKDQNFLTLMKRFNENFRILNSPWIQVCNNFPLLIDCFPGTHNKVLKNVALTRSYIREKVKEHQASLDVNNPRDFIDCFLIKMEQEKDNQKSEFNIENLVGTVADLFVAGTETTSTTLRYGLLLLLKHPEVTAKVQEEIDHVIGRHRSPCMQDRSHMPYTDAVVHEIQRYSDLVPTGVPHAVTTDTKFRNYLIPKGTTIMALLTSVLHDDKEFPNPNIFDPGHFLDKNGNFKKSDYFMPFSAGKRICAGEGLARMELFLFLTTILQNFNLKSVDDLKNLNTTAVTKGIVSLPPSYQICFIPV", "assay": "Inhibition of CYP2C8-catalyzed amodiaquine N-deethylase in ultrapooled human liver microsomes", "type": "in vitro ADME", "description": "as §2, §3"}, "OCT1": {"target": "T2, OCT1 (Homo sapiens, UniProt O15245)", "T2 construct": "host or cells: HEK293 (transient overexpression)", "T2 sequence (O15245 1-554)": "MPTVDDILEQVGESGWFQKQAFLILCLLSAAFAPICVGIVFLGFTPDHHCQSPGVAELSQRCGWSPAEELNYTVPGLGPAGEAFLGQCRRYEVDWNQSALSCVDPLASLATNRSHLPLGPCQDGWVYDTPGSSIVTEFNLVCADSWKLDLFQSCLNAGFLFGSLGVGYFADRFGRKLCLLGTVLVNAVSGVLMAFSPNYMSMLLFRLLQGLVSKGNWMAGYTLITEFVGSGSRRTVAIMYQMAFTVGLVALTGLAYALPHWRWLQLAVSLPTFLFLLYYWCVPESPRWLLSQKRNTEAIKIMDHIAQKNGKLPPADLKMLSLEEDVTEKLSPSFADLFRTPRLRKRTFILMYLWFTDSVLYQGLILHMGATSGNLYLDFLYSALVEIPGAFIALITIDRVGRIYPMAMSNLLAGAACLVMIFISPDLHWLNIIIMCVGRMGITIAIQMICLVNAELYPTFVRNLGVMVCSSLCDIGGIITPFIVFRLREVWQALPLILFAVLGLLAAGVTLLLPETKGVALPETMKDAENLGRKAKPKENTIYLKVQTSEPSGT", "assay": "Uptake of [3-H]methyl-4-phenylpyridinium in HEK293-OCT1 cells", "type": "in vitro ADME", "description": "To examine the effects of APINACA and typical inhibitors on transporter activity, the uptake of a probe substrate into HEK293 cells overexpressing the respective solute carrier transporters was measured in the presence of APINACA (final concentrations of 0–250 μM) or typical inhibitors for 5 min. The concentrations and probe substrates were selected as follows: 0.1 μM [3-H]MPP^+ (for OCT1 and OCT2), 0.1 μM [3-H]PAH (for OAT1), 0.1 μM [3-H]ES (for OAT3 and OATP1B1), and 0.1 μM [3-H]EG (for OATP1B3).\nas §1"}, "[2]": {"conditions": "blood samples of three driving under the influence of drugs cases; cited from earlier work"}}, "note": "Where two headings read alike, the source gives them in different places."}
{"compound": "CCCCCn1nc(C(=O)NC23CC4CC(CC(C4)C2)C3)c2ccccc21", "note": "[APINACA, N-(1-adamantyl)-1-pentyl-1H-indazole-3-carboxamide]", "values": [{"measurement": "IC50", "setting": "UGT2B7", "result": "> 100", "unit": "µM"}, {"measurement": "IC50", "setting": "UGT2B7; read-out: IC50 UGT2B7 naloxone 3-β-D-glucuronidation, with 30-min preincubation, pooled human liver microsomes, 30-min preincubation with UDPGA (○)", "result": "> 100", "unit": "µM"}, {"measurement": "IC50", "setting": "UGT1A1", "result": "> 100", "unit": "µM"}, {"measurement": "IC50", "setting": "UGT1A1; read-out: IC50 UGT1A1 SN-38 glucuronidation, with 30-min preincubation, pooled human liver microsomes, 30-min preincubation with UDPGA (○)", "result": "> 100", "unit": "µM"}, {"measurement": "IC50", "setting": "CYP2C19", "result": "> 100", "unit": "µM"}, {"measurement": "IC50", "setting": "CYP2C19; read-out: IC50 (μM) With Preincubation, CYP2C19 [S]-mephenytoin 4′-hydroxylase, ultrapooled human liver microsomes, 30-min preincubation with NADPH", "result": "> 100", "unit": "µM"}, {"measurement": "IC50", "setting": "OAT1", "result": "> 250", "unit": "µM"}, {"measurement": "Ki", "setting": "[1]", "result": 4.6, "unit": "µM"}, {"measurement": "IC50", "setting": "CYP2C8", "result": "> 100", "unit": "µM"}, {"measurement": "IC50", "setting": "CYP2C8; read-out: IC50 (μM) With Preincubation, CYP2C8 amodiaquine N-deethylase, ultrapooled human liver microsomes, 30-min preincubation with NADPH", "result": "> 100", "unit": "µM"}, {"measurement": "IC50", "setting": "OCT1", "result": "> 250", "unit": "µM"}, {"measurement": "blood concentrations", "setting": "[2]", "result": "0.66 to 67.1", "unit": "nM"}]}
